Results taken from publication PMC4741798, “Imaging of carbonic anhydrase IX with an ^111In-labeled dual-motif inhibitor” (Oncotarget, 2015).
Where “and” joins values, the source holds several entries; their conditions need not be identical. Identical values can stand only once.

System: SK-RC-52 xenografts
Test: Biodistribution in mice bearing SK-RC-52 xenografts
Format: in vivo
Conditions: n = 5; for Biodistribution: Tumor: SK-RC-52 tumor
Procedure: Mice bearing SK-RC-52 xenografts within the lower left flank were injected intravenously with 740 kBq (20 μCi) of [^111In]XYIMSR-01 in 200 μL of PBS. For in vivo competition (binding specificity) studies, tumor-bearing mice were injected with 740 kBq (20 μCi) of [^111In]XYIMSR-01 and 200 nmole of 1 in 200 μL of PBS concurrently. At 1 h, 4 h, 8 h, 24 h and 48 h post-injection, mice were sacrificed by cervical dislocation and the blood was immediately collected by cardiac puncture. Heart, lungs, pancreas, spleen, fat, brain, muscle, small intestines, liver, stomach, kidney, urinary bladder, and tumor were collected. Each organ was weighed and the tissue radioactivity was measured with an automated gamma counter (1282 Compugamma CS, Pharmacia/LKBNuclear, Inc., Mt. Waverly, Vic. Australia). The percentage of injected dose per gram of tissue (% ID/g) was calculated by comparison with samples of a standard dilution of the initial dose. All measurements were corrected for radioactive decay.
Data were expressed as mean ± standard deviation (SD). Prism software (GraphPAD, San Diego, California) was used to determine statistical significance. Statistical significance was calculated using a paired t test. P-values < 0.0001 were considered significant.

[1] = 24 h + Block (co-injected 200 nmole of 1)

CC(CCC(=O)N[C@@H](CC(=O)N[C@@H](CC(=O)N[C@@H](CCCCn1cc(CCCC(=O)Nc2nnc(S(N)(=O)=O)s2)nn1)C(=O)NCCOCCOCCNC(=O)CN1CCN(CC(=O)[O-])CCN(CC(=O)[O-])CCN(CC(=O)[O-])CC1)C(=O)O)C(=O)O)(c1ccc(O)cc1)c1ccc(O)cc1.[111In+3] [[^111In]XYIMSR-01]
Biodistribution: Tumor (1 h post-injection, i.v.): 26 %ID/g and 26.01 ± 5.74 %ID/g
Biodistribution: Bladder (1 h post-injection, i.v.): 4.90 ± 4.96 %ID/g
Biodistribution: Blood (1 h post-injection, i.v.): 1.34 ± 0.17 %ID/g
Biodistribution: Brain (1 h post-injection, i.v.): 1.23 ± 1.10 %ID/g
Biodistribution: Fat (1 h post-injection, i.v.): 1.03 ± 0.24 %ID/g
Biodistribution: Heart (1 h post-injection, i.v.): 5.98 ± 0.53 %ID/g
Biodistribution: Kidney (kid) (1 h post-injection, i.v.): 71.26 ± 8.74 %ID/g
Biodistribution: Liver (1 h post-injection, i.v.): 8.36 ± 0.73 %ID/g
Biodistribution: Lung (1 h post-injection, i.v.): 45.85 ± 19.89 %ID/g
Biodistribution: Muscle (mm) (1 h post-injection, i.v.): 2.34 ± 2.19 %ID/g
Biodistribution: Pancreas (1 h post-injection, i.v.): 3.81 ± 0.72 %ID/g
Biodistribution: Sm. intestine (1 h post-injection, i.v.): 9.37 ± 1.26 %ID/g
Biodistribution: Spleen (1 h post-injection, i.v.): 0.52 ± 0.04 %ID/g
Biodistribution: Stomach (1 h post-injection, i.v.): 16.71 ± 2.46 %ID/g
Tumor/blood ratio (1 h post-injection): 19.7 and 19.7 ± 4.8
Tumor/kid (kidney) ratio (1 h post-injection): 0.36 ± 0.06
Tumor/mm (muscle) ratio (1 h post-injection): 12.7 and 12.7 ± 5.8
Biodistribution: Tumor (4 h post-injection, i.v.): 20.83 ± 6.25 %ID/g
Biodistribution: Bladder (4 h post-injection, i.v.): 2.68 ± 1.89 %ID/g
Biodistribution: Blood (4 h post-injection, i.v.): 0.65 ± 0.06 %ID/g
Biodistribution: Brain (4 h post-injection, i.v.): 0.45 ± 0.06 %ID/g
Biodistribution: Fat (4 h post-injection, i.v.): 0.42 ± 0.22 %ID/g
Biodistribution: Heart (4 h post-injection, i.v.): 2.91 ± 0.45 %ID/g
Biodistribution: Kidney (kid) (4 h post-injection, i.v.): 41.52 ± 6.07 %ID/g
Biodistribution: Liver (4 h post-injection, i.v.): 4.00 ± 0.58 %ID/g
Biodistribution: Lung (4 h post-injection, i.v.): 17.85 ± 3.55 %ID/g
Biodistribution: Muscle (mm) (4 h post-injection, i.v.): 1.01 ± 0.28 %ID/g
Biodistribution: Pancreas (4 h post-injection, i.v.): 1.54 ± 0.40 %ID/g
Biodistribution: Sm. intestine (4 h post-injection, i.v.): 4.27 ± 0.69 %ID/g
Biodistribution: Spleen (4 h post-injection, i.v.): 0.51 ± 0.08 %ID/g
Biodistribution: Stomach (4 h post-injection, i.v.): 7.91 ± 1.28 %ID/g
Tumor/blood ratio (4 h post-injection): 31.9 ± 9.4
Tumor/kid (kidney) ratio (4 h post-injection): 0.50 ± 0.15
Tumor/mm (muscle) ratio (4 h post-injection): 21.4 ± 7.2
Biodistribution: Tumor (8 h post-injection, i.v.): 34.00 ± 15.16 %ID/g
Biodistribution: Bladder (8 h post-injection, i.v.): 2.28 ± 0.51 %ID/g
Biodistribution: Blood (8 h post-injection, i.v.): 0.48 ± 0.02 %ID/g
Biodistribution: Brain (8 h post-injection, i.v.): 0.59 ± 0.09 %ID/g
Biodistribution: Fat (8 h post-injection, i.v.): 0.45 ± 0.08 %ID/g
Biodistribution: Heart (8 h post-injection, i.v.): 2.61 ± 0.35 %ID/g
Biodistribution: Kidney (kid) (8 h post-injection, i.v.): 28.79 ± 21.35 %ID/g
Biodistribution: Liver (8 h post-injection, i.v.): 3.65 ± 0.65 %ID/g
Biodistribution: Lung (8 h post-injection, i.v.): 17.39 ± 8.99 %ID/g
Biodistribution: Muscle (mm) (8 h post-injection, i.v.): 1.09 ± 0.15 %ID/g
Biodistribution: Pancreas (8 h post-injection, i.v.): 1.61 ± 0.28 %ID/g
Biodistribution: Sm. intestine (8 h post-injection, i.v.): 4.31 ± 0.67 %ID/g
Biodistribution: Spleen (8 h post-injection, i.v.): 0.64 ± 0.07 %ID/g
Biodistribution: Stomach (8 h post-injection, i.v.): 8.74 ± 1.26 %ID/g
Tumor/blood ratio (8 h post-injection): 77.0 ± 32.5
Tumor/kid (kidney) ratio (8 h post-injection): 3.1 ± 3.1
Tumor/mm (muscle) ratio (8 h post-injection): 34.2 ± 16.0
Biodistribution: Tumor [1]: 1 %ID/g and 1.41 ± 0.20 %ID/g
Biodistribution: Bladder [1]: 0.20 ± 0.07 %ID/g
Biodistribution: Blood [1]: 0.03 ± 0.00 %ID/g
Biodistribution: Brain [1]: 0.03 ± 0.00 %ID/g
Biodistribution: Fat [1]: 0.02 ± 0.01 %ID/g
Biodistribution: Heart [1]: 0.04 ± 0.01 %ID/g
Biodistribution: Kidney (kid) [1]: 0.68 ± 0.14 %ID/g
Biodistribution: Liver [1]: 0.10 ± 0.02 %ID/g
Biodistribution: Lung [1]: 0.12 ± 0.02 %ID/g
Biodistribution: Muscle (mm) [1]: 0.02 ± 0.00 %ID/g
Biodistribution: Pancreas [1]: 0.03 ± 0.00 %ID/g
Biodistribution: Sm. intestine [1]: 0.08 ± 0.01 %ID/g
Biodistribution: Spleen [1]: 0.08 ± 0.01 %ID/g
Biodistribution: Stomach [1]: 0.14 ± 0.02 %ID/g
Tumor/blood ratio [1]: 45.2 ± 9.7
Tumor/kid (kidney) ratio [1]: 2.1 ± 0.3
